Experimental data: ChEMBL document CHEMBL4251621, “Design, synthesis and QSAR study of novel isatin analogues inspired Michael acceptor as potential anticancer compounds” (Eur J Med Chem, 2018)
Active and inactive are the calls of the source. The rule behind the calls is not given here.

Columns and labels:
[1] = system: BGC-823; assay: Cytotoxicity against human BGC823 cells assessed as cell growth inhibition after 72 hrs by MTT assay; assay type: functional, cell-based; settings: BGC-823, 72 h
[2] = system: SGC-7901; assay: Cytotoxicity against human SGC7901 cells assessed as cell growth inhibition after 72 hrs by MTT assay; assay type: functional, cell-based; settings: SGC-7901, 72 h
[3] = system: NCI-H460; assay: Cytotoxicity against human NCI-H460 cells assessed as cell growth inhibition after 72 hrs by MTT assay; assay type: functional, cell-based; settings: NCI-H460, 72 h
[4] = system: NCI-H460; assay: Growth inhibition of human NCI-H460 cells assessed as reduction in cell viability at 5 to 10 uM incubated for 24 to 72 hrs by MTT assay; assay type: functional, cell-based
[5] = system: NCI-H460; assay: Anti-growth activity against human NCI-H460 cells assessed as reduction in colony formation at 20 uM after 18 hrs by crystal violet-based colony forming assay; assay type: functional, cell-based
[6] = system: NCI-H460; assay: Anti-migratory activity against human NCI-H460 cells at 20 uM incubated for 48 hrs by wound healing assay; assay type: functional, cell-based
[7] = system: Mus musculus; assay: Toxicity in BALB/C nu nude mouse xenografted with human NCI-H460 cells assessed as histopathological changes in liver at 15 mg/kg, ip administered everyday for 15 days by hematoxylin and eosin staining based light microscopic analysis; assay type: organism-based; settings: in vivo, 360 h
[8] = system: Mus musculus; assay: Toxicity in BALB/C nu nude mouse xenografted with human NCI-H460 cells assessed as histopathological changes in lung at 15 mg/kg, ip administered everyday for 15 days by hematoxylin and eosin staining based light microscopic analysis; assay type: organism-based; settings: in vivo, 360 h
[9] = system: NCI-H460; assay: Induction of apoptosis in tumor of human NCI-H460 cells xenografted in BALB/C nu nude mouse assessed as downregulation of bcl2 expression at 15 mg/kg, ip administered everyday for 15 days by Western blot analysis; assay type: functional, organism-based
[10] = system: NCI-H460; assay: Anti-growth activity against human NCI-H460 cells assessed as reduction in colony formation after 18 hrs by crystal violet-based colony forming assay; assay type: functional, cell-based
[11] = system: NCI-H460; assay: Anti-migratory activity against human NCI-H460 cells incubated for 48 hrs by wound healing assay; assay type: functional, cell-based
[12] = system: NCI-H460; assay: Cell cycle arrest in human NCI-H460 cells assessed as accumulation at G2/M phase at 5 to 20 uM after 48 hrs by propidium iodide staining-based flow cytometry; assay type: functional
[13] = system: NCI-H460; assay: Antitumor activity against human NCI-H460 cells xenografted in BALB/C-nu nude mouse assessed as reduction in tumor growth at 15 mg/kg, ip administered every day for 15 days; assay type: functional, organism-based
[14] = system: Mus musculus; assay: Toxicity in BALB/C nu nude mouse xenografted with human NCI-H460 cells assessed as weight loss at 15 mg/kg, ip administered everyday for 15 days measured every 2 days; assay type: organism-based; settings: in vivo
[15] = system: Mus musculus; assay: Toxicity in BALB/C nu nude mouse xenografted with human NCI-H460 cells assessed as induction of abnormal behavior at 15 mg/kg, ip administered everyday for 15 days; assay type: organism-based; settings: in vivo, 360 h
[16] = system: NCI-H460; assay: Anti-growth activity against human NCI-H460 cells assessed as reduction in colony formation at 10 uM after 48 hrs by crystal violet-based colony forming assay; assay type: functional, cell-based
[17] = system: NCI-H460; assay: Anti-migratory activity against human NCI-H460 cells at 10 uM incubated for 48 hrs by wound healing assay; assay type: functional, cell-based

| SMILES | IC50 [1] [µM] | IC50 [2] [µM] | IC50 [3] [µM] | also measured |
| --- | --- | --- | --- | --- |
| Nc1c(Cl)cc(C(=O)/C=C2/C(=O)Nc3ccccc32)cc1Cl | 8.5 | 11.9 | 6.2 | – |
| O=C1Nc2ccccc2/C1=C\C(=O)c1cc(F)cc(F)c1 | 15.7 | 17.6 | 13.3 | – |
| CC(C)C(=O)Nc1cccc(C(=O)/C=C2/C(=O)Nc3ccccc32)c1 | 6.2 | 8.6 | 9.7 | – |
| O=C1Nc2ccccc2/C1=C\C(=O)c1cc(Cl)ccc1Cl | 53.7 | 56.3 | 61.6 | – |
| COc1cc(/C=C/C(=O)CC(=O)/C=C/c2ccc(O)c(OC)c2)ccc1O [CURCUMIN] | 19.5 | 26.2 | – | growth inhibition (GI) [4]: Active; Activity [5]: Active; Activity [6]: Active; Activity [7]: Non-Toxic; Activity [8]: Non-Toxic; Activity [9]: Active |
| O=C1Nc2ccccc2/C1=C\C(=O)c1ccccc1 | 13.2 | 9.3 | 10.4 | – |
| COc1ccc(C(=O)/C=C2/C(=O)Nc3ccccc32)c(OC)c1 | 9.2 | 11.5 | 5.4 | – |
| O=C1Nc2ccccc2/C1=C\C(=O)c1ccc(Cl)c(Cl)c1 | 13.2 | 17.8 | 13.7 | – |
| CC(=O)Nc1cccc(C(=O)/C=C2/C(=O)Nc3ccccc32)c1 | 9.1 | 14.1 | 12.3 | – |
| COc1ccc(C(=O)/C=C2/C(=O)Nc3ccccc32)cc1 | 19.8 | 23.2 | 5.5 | – |
| O=C1Nc2ccccc2/C1=C\C(=O)c1ccccc1Cl | 9.1 | 12.8 | 7.7 | – |
| C=CC(=O)Nc1cccc(C(=O)/C=C2/C(=O)Nc3ccccc32)c1 | 3.6 | 5.7 | 3.2 | Activity [4]: Dose-dependent effect; growth inhibition (GI) ([4]; TDE = time-dependent effect): Tde; Activity [10]: Dose-dependent effect; Activity [11]: Dose-dependent effect; Activity [12]: Active; TGI [13]: Active; Activity [14]: Non-Toxic; Activity [15]: Non-Toxic; Activity [7]: Non-Toxic; Activity [8]: Non-Toxic; Activity [9]: Active |
| COc1cc(O)c(CC=C(C)C)c(O)c1C(=O)/C=C/c1ccc(O)cc1 [XANTHOHUMOL] | 7.8 | 10 | 6.9 | growth inhibition (GI) [4]: Active; Activity [16]: Active; Activity [17]: Active |
| Nc1cccc(C(=O)/C=C2/C(=O)Nc3ccccc32)c1 | 29.9 | 14.4 | 20.4 | – |
| O=C1Nc2ccccc2/C1=C\C(=O)c1ccccc1F | 11.8 | 17.4 | 8.5 | – |
| O=C1Nc2ccccc2/C1=C\C(=O)c1ccc(F)cc1 | 11.1 | 12.4 | 7.5 | – |
| O=C1Nc2ccccc2/C1=C\C(=O)c1ccc(Cl)cc1 | 6.9 | 8.5 | 6.5 | – |
| COc1cc(C(=O)/C=C2/C(=O)Nc3ccccc32)cc(OC)c1OC | 13.9 | 18.3 | 10.9 | – |
| CCC(=O)Nc1cccc(C(=O)/C=C2/C(=O)Nc3ccccc32)c1 | 7.5 | 11.5 | 10.3 | – |
| O=C1Nc2ccccc2/C1=C\C(=O)c1ccc([N+](=O)[O-])cc1 | 14.3 | 18.2 | 18.4 | – |
| O=C1Nc2ccccc2/C1=C\C(=O)c1cccc(Cl)c1 | 7.7 | 8.4 | 9.8 | – |
| COc1ccccc1C(=O)/C=C1/C(=O)Nc2ccccc21 | 10.2 | 16.3 | 10.2 | – |
| O=C1Nc2ccccc2/C1=C\C(=O)c1ccc(Br)cc1 | 9 | 10.2 | 11.5 | – |
| O=C1Nc2ccccc2/C1=C\C(=O)c1ccccc1Br | 9.5 | 13.1 | 11 | – |
